# Results: publication PMC9481151, “Discovery of new symmetrical and asymmetrical nitrile-containing 1,4-dihydropyridine derivatives as dual kinases and P-glycoprotein inhibitors: synthesis, in vitro assays, and in silico studies” (Journal of Enzyme Inhibition and Medicinal Chemistry, 2022)
# Tests used:
# CCRF-CEM = test: NCI single dose (10 µM) SRB screen; format: cell-based, human; settings: leukaemia, 48 h
# HL-60(TB) = test: NCI single dose (10 µM) SRB screen; format: cell-based, human; settings: leukaemia, 48 h
# K-562 = test: NCI single dose (10 µM) SRB screen; format: cell-based, human; settings: leukaemia, 48 h
# MOLT-4 = test: NCI single dose (10 µM) SRB screen; format: cell-based, human; settings: leukaemia, 48 h
# RPMI-8226 = test: NCI single dose (10 µM) SRB screen; format: cell-based, human; settings: leukaemia, 48 h
# A549/ATCC = test: NCI single dose (10 µM) SRB screen; format: cell-based, human; settings: non-small cell lung cancer, 48 h
# EKVX = test: NCI single dose (10 µM) SRB screen; format: cell-based, human; settings: non-small cell lung cancer, 48 h
# HOP-92 = test: NCI single dose (10 µM) SRB screen; format: cell-based, human; settings: non-small cell lung cancer, 48 h
# NCI-H23 = test: NCI single dose (10 µM) SRB screen; format: cell-based, human; settings: non-small cell lung cancer, 48 h
# NCI-H322M = test: NCI single dose (10 µM) SRB screen; format: cell-based; settings: non-small cell lung cancer, 48 h
# NCI-H460 = test: NCI single dose (10 µM) SRB screen; format: cell-based, human; settings: non-small cell lung cancer, 48 h
# COLO 205 = test: NCI single dose (10 µM) SRB screen; format: cell-based, human; settings: colon cancer, 48 h
# HCC-2998 = test: NCI single dose (10 µM) SRB screen; format: cell-based, human; settings: colon cancer, 48 h
# HCT-116 = test: NCI single dose (10 µM) SRB screen; format: cell-based, human; settings: colon cancer, 48 h
# HCT-15 = test: NCI single dose (10 µM) SRB screen; format: cell-based, human; settings: colon cancer, 48 h
# HT29 = test: NCI single dose (10 µM) SRB screen; format: cell-based, human; settings: colon cancer, 48 h
# SF-268 = test: NCI single dose (10 µM) SRB screen; format: cell-based, human; settings: CNS cancer, 48 h
# SF-295 = test: NCI single dose (10 µM) SRB screen; format: cell-based, human; settings: CNS cancer, 48 h
# SF-539 = test: NCI single dose (10 µM) SRB screen; format: cell-based, human; settings: CNS cancer, 48 h
# SNB-19 = test: NCI single dose (10 µM) SRB screen; format: cell-based, human; settings: CNS cancer, 48 h
# SNB-75 = test: NCI single dose (10 µM) SRB screen; format: cell-based, human; settings: CNS cancer, 48 h
# U251 = test: NCI single dose (10 µM) SRB screen; format: cell-based, human; settings: CNS cancer, 48 h
# LOX IMVI = test: NCI single dose (10 µM) SRB screen; format: cell-based, human; settings: melanoma, 48 h
# MALME-3M = test: NCI single dose (10 µM) SRB screen; format: cell-based, human; settings: melanoma, 48 h
# M14 = test: NCI single dose (10 µM) SRB screen; format: cell-based, human; settings: melanoma, 48 h
# MDA-MB-435 = test: NCI single dose (10 µM) SRB screen; format: cell-based, human; settings: melanoma, 48 h
# SK-MEL-2 = test: NCI single dose (10 µM) SRB screen; format: cell-based, human; settings: melanoma, 48 h
# UACC-257 = test: NCI single dose (10 µM) SRB screen; format: cell-based, human; settings: melanoma, 48 h
# IGROV1 = test: NCI single dose (10 µM) SRB screen; format: cell-based, human; settings: ovarian cancer, 48 h
# OVCAR-3 = test: NCI single dose (10 µM) SRB screen; format: cell-based, human; settings: ovarian cancer, 48 h
# OVCAR-4 = test: NCI single dose (10 µM) SRB screen; format: cell-based, human; settings: ovarian cancer, 48 h
# OVCAR-5 = test: NCI single dose (10 µM) SRB screen; format: cell-based, human; settings: ovarian cancer, 48 h
# OVCAR-8 = test: NCI single dose (10 µM) SRB screen; format: cell-based, human; settings: ovarian cancer, 48 h
# NCI/ADR-RES = test: NCI single dose (10 µM) SRB screen; format: cell-based, human; settings: ovarian cancer, 48 h
# SK-OV-3 = test: NCI single dose (10 µM) SRB screen; format: cell-based, human; settings: ovarian cancer, 48 h
# 786-0 = test: NCI single dose (10 µM) SRB screen; format: cell-based, human; settings: renal cancer, 48 h
# A498 = test: NCI single dose (10 µM) SRB screen; format: cell-based, human; settings: renal cancer, 48 h
# ACHN = test: NCI single dose (10 µM) SRB screen; format: cell-based, human; settings: renal cancer, 48 h
# CAKI-1 = test: NCI single dose (10 µM) SRB screen; format: cell-based, human; settings: renal cancer, 48 h
# RXF 393 = test: NCI single dose (10 µM) SRB screen; format: cell-based, human; settings: renal cancer, 48 h
# SN12C = test: NCI single dose (10 µM) SRB screen; format: cell-based, human; settings: renal cancer, 48 h
# TK-10 = test: NCI single dose (10 µM) SRB screen; format: cell-based, human; settings: renal cancer, 48 h
# UO-31 = test: NCI single dose (10 µM) SRB screen; format: cell-based, human; settings: renal cancer, 48 h
# PC-3 = test: NCI single dose (10 µM) SRB screen; format: cell-based, human; settings: prostate cancer, 48 h
# MDA-MB-231 = test: NCI single dose (10 µM) SRB screen; format: cell-based, human; settings: breast cancer, 48 h
# HS578T = test: NCI single dose (10 µM) SRB screen; format: cell-based, human; settings: breast cancer, 48 h
# BT-549 = test: NCI single dose (10 µM) SRB screen; format: cell-based, human; settings: breast cancer, 48 h
# T-47D = test: NCI single dose (10 µM) SRB screen; format: cell-based, human; settings: breast cancer, 48 h
# MDA-MB-468 = test: NCI single dose (10 µM) SRB screen; format: cell-based, human; settings: breast cancer, 48 h
# NCI 60 cancer cell lines = test: NCI single dose (10 µM) SRB screen, mean over panel; format: cell-based, human; settings: mean over 60 cell lines, 48 h
# Staphylococcus aureus = test: Agar well diffusion method; settings: for % activity index, S. aureus: relative to ciprofloxacin
# Candida albicans = test: Agar well diffusion method; settings: for % activity index, C. albicans: relative to clotrimazole
# Aspergillus flavus = test: Agar well diffusion method; settings: for % activity index, A. flavus: relative to clotrimazole
structure (smiles),measurement,setting,value
"CCOC(=O)C1=C(C)NC(C)=C(C(=O)OCC)C1c1cccc(C#N)c1 [Compound 1b, Diethyl 4-(3-cyanophenyl)-2,6-dimethyl-1,4-dihydropyridine-3,5-dicarboxylate]",GI% CCRF-CEM,CCRF-CEM,– (Only GI% ≥ 10 are shown)
same,GI% HL-60(TB),HL-60(TB),13%
same,GI% K-562,K-562,43%
same,GI% MOLT-4,MOLT-4,– (Only GI% ≥ 10 are shown)
same,GI% RPMI-8226,RPMI-8226,– (Only GI% ≥ 10 are shown)
same,GI% A549/ATCC,A549/ATCC,– (Only GI% ≥ 10 are shown)
same,GI% EKVX,EKVX,– (Only GI% ≥ 10 are shown)
same,GI% HOP-92,HOP-92,10%
same,GI% NCI-H23,NCI-H23,– (Only GI% ≥ 10 are shown)
same,GI% NCI-H322M,NCI-H322M,– (Only GI% ≥ 10 are shown)
same,GI% NCI-H460,NCI-H460,– (Only GI% ≥ 10 are shown)
same,GI% COLO 205,COLO 205,– (Only GI% ≥ 10 are shown)
same,GI% HCC-2998,HCC-2998,– (Only GI% ≥ 10 are shown)
same,GI% HCT-116,HCT-116,11%
same,GI% HCT-15,HCT-15,23%
same,GI% HT29,HT29,– (Only GI% ≥ 10 are shown)
same,GI% SF-268,SF-268,– (Only GI% ≥ 10 are shown)
same,GI% SF-295,SF-295,– (Only GI% ≥ 10 are shown)
same,GI% SF-539,SF-539,– (Only GI% ≥ 10 are shown)
same,GI% SNB-19,SNB-19,– (Only GI% ≥ 10 are shown)
same,GI% SNB-75,SNB-75,38%
same,GI% U251,U251,– (Only GI% ≥ 10 are shown)
same,GI% LOX IMVI,LOX IMVI,– (Only GI% ≥ 10 are shown)
same,GI% MALME-3M,MALME-3M,– (Only GI% ≥ 10 are shown)
same,GI% M14,M14,– (Only GI% ≥ 10 are shown)
same,GI% MDA-MB-435,MDA-MB-435,42%
same,GI% SK-MEL-2,SK-MEL-2,– (Only GI% ≥ 10 are shown)
same,GI% UACC-257,UACC-257,– (Only GI% ≥ 10 are shown)
same,GI% IGROV1,IGROV1,– (Only GI% ≥ 10 are shown)
same,GI% OVCAR-3,OVCAR-3,– (Only GI% ≥ 10 are shown)
same,GI% OVCAR-4,OVCAR-4,– (Only GI% ≥ 10 are shown)
same,GI% OVCAR-5,OVCAR-5,– (Only GI% ≥ 10 are shown)
same,GI% OVCAR-8,OVCAR-8,– (Only GI% ≥ 10 are shown)
same,GI% NCI/ADR-RES,NCI/ADR-RES,– (Only GI% ≥ 10 are shown)
same,GI% SK-OV-3,SK-OV-3,– (Only GI% ≥ 10 are shown)
same,GI% 786-0,786-0,– (Only GI% ≥ 10 are shown)
same,GI% A498,A498,– (Only GI% ≥ 10 are shown)
same,GI% ACHN,ACHN,– (Only GI% ≥ 10 are shown)
same,GI% CAKI-1,CAKI-1,31%
same,GI% RXF 393,RXF 393,10%
same,GI% SN12C,SN12C,– (Only GI% ≥ 10 are shown)
same,GI% TK-10,TK-10,– (Only GI% ≥ 10 are shown)
same,GI% UO-31,UO-31,13%
same,GI% PC-3,PC-3,20%
same,GI% MDA-MB-231,MDA-MB-231,– (Only GI% ≥ 10 are shown)
same,GI% HS578T,HS578T,16%
same,GI% BT-549,BT-549,– (Only GI% ≥ 10 are shown)
same,GI% T-47D,T-47D,23%
same,GI% MDA-MB-468,MDA-MB-468,22%
same,Mean GI%,NCI 60 cancer cell lines,8%
same,zone of inhibition at 1000 µg/mL,"Staphylococcus aureus; Staphylococcus aureus, 24 h, read-out: Diameter of inhibition zone, S. aureus",14 mm
same,"% activity index, S. aureus",Staphylococcus aureus,58.3%
same,zone of inhibition at 1000 µg/mL,"Candida albicans; Candida albicans, 24 h, read-out: Diameter of inhibition zone, C. albicans",15 mm
same,"% activity index, C. albicans",Candida albicans,55.5%
same,zone of inhibition at 1000 µg/mL,"Aspergillus flavus; Aspergillus flavus, 24 h, read-out: Diameter of inhibition zone, A. flavus",16 mm
same,"% activity index, A. flavus",Aspergillus flavus,64%
"CCOC(=O)C1=C(C)NC(C)=C(C(=O)OCc2ccccc2)C1c1cccc(C#N)c1 (racemic) [Compound 2l, (±)-3- Benzyl 5-ethyl 4-(3-cyanophenyl)-2,6-dimethyl-1,4-dihydropyridine-3,5-dicarboxylate]",GI% CCRF-CEM,CCRF-CEM,74%
same,GI% HL-60(TB),HL-60(TB),83%
same,GI% K-562,K-562,83%
same,GI% MOLT-4,MOLT-4,68%
same,GI% RPMI-8226,RPMI-8226,67%
same,GI% A549/ATCC,A549/ATCC,65%
same,GI% EKVX,EKVX,62%
same,GI% HOP-92,HOP-92,49%
same,GI% NCI-H23,NCI-H23,37%
same,GI% NCI-H322M,NCI-H322M,30%
same,GI% NCI-H460,NCI-H460,77%
same,GI% COLO 205,COLO 205,65%
same,GI% HCC-2998,HCC-2998,29%
same,GI% HCT-116,HCT-116,86%
same,GI% HCT-15,HCT-15,77%
same,GI% HT29,HT29,88%
same,GI% SF-268,SF-268,42%
same,GI% SF-295,SF-295,84%
same,GI% SF-539,SF-539,76%
same,GI% SNB-19,SNB-19,58%
same,GI% SNB-75,SNB-75,104%
same,GI% U251,U251,58%
same,GI% LOX IMVI,LOX IMVI,64%
same,GI% MALME-3M,MALME-3M,62%
same,GI% M14,M14,85%
same,GI% MDA-MB-435,MDA-MB-435,110%
same,GI% SK-MEL-2,SK-MEL-2,75%
same,GI% UACC-257,UACC-257,44%
same,GI% IGROV1,IGROV1,57%
same,GI% OVCAR-3,OVCAR-3,76%
same,GI% OVCAR-4,OVCAR-4,28%
same,GI% OVCAR-5,OVCAR-5,38%
same,GI% OVCAR-8,OVCAR-8,51%
same,GI% NCI/ADR-RES,NCI/ADR-RES,77%
same,GI% SK-OV-3,SK-OV-3,24%
same,GI% 786-0,786-0,63%
same,GI% A498,A498,104%
same,GI% ACHN,ACHN,52%
same,GI% CAKI-1,CAKI-1,67%
same,GI% RXF 393,RXF 393,55%
same,GI% SN12C,SN12C,63%
same,GI% TK-10,TK-10,16%
same,GI% UO-31,UO-31,56%
same,GI% PC-3,PC-3,66%
same,GI% MDA-MB-231,MDA-MB-231,47%
same,GI% HS578T,HS578T,59%
same,GI% BT-549,BT-549,68%
same,GI% T-47D,T-47D,72%
same,GI% MDA-MB-468,MDA-MB-468,84%
same,Mean GI%,NCI 60 cancer cell lines,64%
same,"% activity index, S. aureus",Staphylococcus aureus,– (Values below 25 are of limited value and not shown as they refer either to inactive or non-diffusing compounds)
same,"% activity index, C. albicans",Candida albicans,– (Values below 25 are of limited value and not shown as they refer either to inactive or non-diffusing compounds)
same,"% activity index, A. flavus",Aspergillus flavus,– (Values below 25 are of limited value and not shown as they refer either to inactive or non-diffusing compounds)
